Measurements reported in US20140242093A1, “METHODS AND COMPOSITIONS FOR MODULATING THE INNATE IMMUNE RESPONSE AND/OR MYOGENESIS IN A MAMMALIAN SUBJECT” (FRED HUTCHINSON CANCER RESEARCH CENTER, priority 2011, published 2014).

Tested on: control human primary myoblasts
Experiment: Expression microarray of primary myoblasts transduced with lentivirus carrying DUX4-fl, DUX4-s or GFP
Experimental: Primary human myoblasts were collected and cultured as previously described (Snider et al., 2010). Primary myoblasts were maintained at or below 70% confluency for proliferation. For differentiation, cells were allowed to reach 95-100% confluency in growth medium. Once confluency was reached, the cells were changed to differentiation medium (F10 media supplemented with 1% horse serum, 10 μg/mL insulin, and 10 μg/mL transferrin, penicillin/streptomycin) and maintained for 4 days. Human RD cells were grown in DMEM in 10% bovine calf serum (Hyclone) and penicillin/streptomycin. The primary myoblasts were transduced with lentivirus carrying DUX-fl, DUX4- or GFP (MOI=15).
Expression microarrays were performed on the transduced cells at 24 hours after transduction as follows. […] Samples were analyzed by Illumina Human Whole Genome microarrays. Probe intensities were corrected, normalized, and summarized by the Lumi package of Bioconductor (Du et al., 2008). Differentially expressed genes were identified by the LIMMA package of Bioconductor (Wettenhall and Smyth, 2004). Gene set enrichment analysis (GSEA) was performed using the Bioconductor GOstats package (Falcon and Gentleman, 2007).

## DUX4-fl: full-length DUX4 protein (SEQ ID NO:110), expressed from lentiviral or pCS2 vectors or in vitro translated
Refseq NM_001012643.2
  fc of MYPOP (expression array): −1.053
Refseq NM_001013407.1
  PRAMEF5 expression fc: 7.35
Refseq NM_001013631.1
  HNRNPCL1 expression fc: 3.484
Refseq NM_001013734.2
  RFPL4B expression fc: 8.34
Refseq NM_001014440.2
  ODF3B fc: −1.1
Refseq NM_001015882.2
  DNAJC25 expression fc: 1.995
Refseq NM_001017425.2
  KCNK2 fc: −1.154
Refseq NM_001017928.2
  CCDC58 expression fc: 2.001
Refseq NM_001017971.1
  fc of ATP6AP1L (expression array): −1.049
Refseq NM_001017995.1
  SH3PXD2B fc: −1.101
Refseq NM_001018011.1, cultured human skeletal muscle
  ZBTB16 expression fc: −2.037
Refseq NM_001018069.1
  fc of SERBP1 (expression array): −0.241
Refseq NM_001024466.1, cultured human skeletal muscle
  SOD2 expression fc: −4.617
Refseq NM_001024630.2
  fc of RUNX2 (expression array): −1.019
Refseq NM_001024646.1
  CLK1 expression fc: 1.84
Refseq NM_001024847.1
  fc of TGFBR2 (expression array): −1.017
Refseq NM_001025235.1
  TSPAN4 fc: −1.175
Refseq NM_001025603.1
  fc of RFX5 (expression array): −1.052
Refseq NM_001032290.1
  PSRC1 fc: −1.126
Refseq NM_001032409.1, cultured human skeletal muscle
  OAS1 expression fc: −4.607
Refseq NM_001033113.1
  ENTPD8 expression fc: 4.073
Refseq NM_001033566.1
  RHOT1 fc: −1.074
Refseq NM_001037333.1
  CYFIP2 fc: −1.081
Refseq NM_001037537.1
  fc of PHYH (expression array): −1.007
Refseq NM_001039348.1
  fc of EFEMP1 (expression array): −1.03
Refseq NM_001039361.1
  PRAMEF10 expression fc: 6.064
Refseq NM_001039481.1
  ETNK1 expression fc: 1.892
Refseq NM_001039615.1
  LOC440053 expression fc: 3.919
Refseq NM_001039771.2
  CBLN3 fc: −1.144
Refseq NM_001040708.1
  HEY1 expression fc: 2.18
Refseq NM_001048201.1
  fc of UHRF1 (expression array): −0.2091
Refseq NM_001048223.1
  DBNDD2 expression fc: 2.987
Refseq NM_001077261.1
  NCOR2 fc: −1.177
Refseq NM_001077493.1
  fc of NFKB2 (expression array): −1.011
Refseq NM_001078174.1
  fc of SLC29A1 (expression array): −0.5111
Refseq NM_001080463.1
  DYNC2H1 expression fc: 3.721
Refseq NM_001080830.1
  PRAMEF12 expression fc: 7.802
Refseq NM_001080998.1
  FRG2B expression fc: 1.993
Refseq NM_001081551.2
  DEFB103A expression fc: 6.442
Refseq NM_001081559.1
  CPSF4 fc: −1.171
Refseq NM_001083112.1
  fc of GPD2 (expression array): −0.3652
Refseq NM_001098199.1
  fc of GPR1 (expression array): −1.054
Refseq NM_001098479.1, cultured human skeletal muscle
  HLA-F expression fc: −1.932
Refseq NM_001098535.1
  RFPL3 expression fc: 8.144
Refseq NM_001098538.1
  PRR4 expression fc: 3.562
Refseq NM_001099684.1
  FAM156B fc: −1.113
Refseq NM_001099790.1
  PRAMEF19 expression fc: 2.336
Refseq NM_001099852.1
  PRAMEF20 expression fc: 4.795
Refseq NM_001099854.1
  PRAMEF14 expression fc: 3.186
Refseq NM_001100114.1
  PRAMEF21 expression fc: 2.487
Refseq NM_001105522.1
  LOC729384 expression fc: 6.832
Refseq NM_001126063.2
  KHDC1L expression fc: 8.012
Refseq NM_001129826.1
  CSAG3 expression fc: 5.871
Refseq NM_001136118.1
  LOC399940 expression fc: 4.727
Refseq NM_001136561.1
  LOC440563 expression fc: 5.312
Refseq NM_001136572.1
  FAM90A7 expression fc: 3.199
Refseq NR_001561.1
  CYCSL1 expression fc: 2.506
Refseq NR_001565.1
  MGC10997 expression fc: 2.426
Refseq NR_002201.1, cultured human skeletal muscle
  FTHL3 expression fc: −2.577
Refseq NR_002204.1, cultured human skeletal muscle
  FTHL11 expression fc: −2.085
Refseq NR_002205.1, cultured human skeletal muscle
  FTHL12 expression fc: −1.948
Refseq NR_002312.1
  RPPH1 expression fc: 2.037
Refseq NR_002727.1
  RFPL1S expression fc: 8.396
Refseq NR_002739.1
  SNORD56 expression fc: 1.855
Refseq NR_002777.2
  fc of TRIM78P (expression array): −0.9991
Refseq NR_002944.2
  HNRPA1L-2 expression fc: 1.921
Refseq NR_003051.2
  RMRP expression fc: 2.267
Refseq NR_003133.1
  fc of LOC400759 (expression array): −0.7622
Refseq NR_003249.1
  HNRPDL expression fc: 2.175
Refseq NR_003264.1
  SDHALP1 expression fc: 3.276
Refseq NR_023371.1
  RN5S9 expression fc: 4.191
Refseq NR_024031.1
  KIAA0114 expression fc: 1.841
Refseq NR_024129.1
  NCRNA00092 expression fc: 2.395
Refseq NR_030228.1
  MIR503 expression fc: 1.91
Refseq NR_031755.1
  MIR2278 expression fc: 2.412
Refseq XM_036729.5
  USP41 fc: −1.127
Refseq XM_061890.11
  TRIM64 expression fc: 4.943
Refseq XM_069743.3
  LOC136157 expression fc: 8.299
Refseq XM_114987.3
  LOC196120 expression fc: 8.179
Refseq XM_116384.2
  LOC646066 expression fc: 4.391
Refseq XM_208203.5
  LOC284428 expression fc: 8.023
Refseq XM_210642.1
  LOC285697 expression fc: 3.783
Refseq XM_292724.5
  LOC342934 expression fc: 2.988
Refseq XM_293943.2
  LOC340096 expression fc: 7.382
Refseq XM_372030.4
  LOC389633 expression fc: 1.807
Refseq XM_372343.1
  LOC390031 expression fc: 8.331
Refseq XM_372543.2
  LOC390530 fc: −1.104
Refseq XM_372780.3
  LOC391045 expression fc: 2.166
Refseq XM_372792.2
  LOC391092 expression fc: 1.837
Refseq XM_373056.1
  LOC391742 expression fc: 5.733
Refseq XM_373059.2
  LOC391747 expression fc: 2.789
Refseq XM_373073.2
  LOC391761 expression fc: 3.009
Refseq XM_373076.3
  LOC391764 expression fc: 5.821
Refseq XM_373077.2
  LOC391766 expression fc: 5.724
Refseq XM_373078.1
  LOC391767 expression fc: 5.492
Refseq XM_374917.3
  LOC399937 expression fc: 1.841
Refseq XM_374919.3
  LOC399939 expression fc: 6.931
Refseq XM_377445.3
  LOC401860 expression fc: 4.272
Refseq XM_377875.2
  LOC402199 expression fc: 4.392
Refseq XM_377879.3
  LOC646103 expression fc: 4.658
Refseq XM_377884.2
  LOC402207 expression fc: 4.903
Refseq XM_495873.4
  LOC440040 expression fc: 7.534
Refseq XM_496956.4
  FAM90A9 expression fc: 2.248
Refseq XM_496961.3
  FAM90A12 expression fc: 1.774
Refseq XM_497258.1
  LOC441584 expression fc: 7.781
Refseq XM_498969.2, cultured human skeletal muscle
  LOC441019 expression fc: −2.107
Refseq XM_499343.2
  PEG10 expression fc: 1.935
Refseq XM_925891.1
  LOC642362 expression fc: 8.016
Refseq XM_926027.2
  LOC642538 expression fc: 1.792
Refseq XM_926073.2
  LOC653111 expression fc: 3.139
Refseq XM_926241.2
  LOC642843 expression fc: 2.728
Refseq XM_926437.2
  LOC653192 expression fc: 8.228
Refseq XM_926449.1
  LOC653194 expression fc: 3.633
Refseq XM_927019.1
  LOC643731 expression fc: 1.903
Refseq XM_927769.1
  LOC653506 fc: −1.144
Refseq XM_928167.2
  LOC645137 expression fc: 2.323
Refseq XM_928224.2
  fc of LOC653583 (expression array): −1.02
Refseq XM_928412.1
  LOC645373 expression fc: 2.891
Refseq XM_928577.2
  LOC645558 expression fc: 4.803
Refseq XM_928680.1
  LOC645669 expression fc: 8.202
Refseq XM_928688.3
  LOC653656 expression fc: 7.897
Refseq XM_928697.2
  LOC653657 expression fc: 7.857
Refseq XM_929644.2
  LOC646698 expression fc: 6.012
Refseq XM_929704.2
  LOC646754 expression fc: 5.11
Refseq XM_929877.1
  LOC646914 expression fc: 2.569
Refseq XM_931359.2
  fc of LOC338758 (expression array): −1.005
Refseq XM_933679.1
  LOC644739 fc: −1.165
Refseq XM_936272.2
  LOC642127 expression fc: 6.112
Refseq XM_936370.2
  LOC642219 expression fc: 4.799
Refseq XM_936463.2
  LOC285299 expression fc: 2.84
Refseq XM_936467.2
  fc of BEXL1 (expression array): −1.018
Refseq XM_937424.1
  LOC653978 expression fc: 3.554
Refseq XM_937570.1
  LOC646508 expression fc: 2.498
Refseq XM_937587.1
  LOC648533 expression fc: 2.284
Refseq XM_938208.2
  LOC342933 expression fc: 3.752
Refseq XM_938420.2
  PRAMEF17 expression fc: 4.223
Refseq XM_938508.1
  fc of LOC649425 (expression array): −0.2065
Refseq XM_938635.2
  LOC649563 expression fc: 2.425
Refseq XM_939249.1
  LOC650167 expression fc: 3.363
Refseq XM_939354.1
  LOC654101 expression fc: 5.034
Refseq XM_939432.1
  MGC61598 expression fc: 2.969
Refseq XM_940443.1
  LOC651308 expression fc: 8.169
Refseq XM_940903.2
  ZC3H5 fc: −1.155
Refseq XM_941060.1
  LOC651816 expression fc: 1.836
Refseq XM_941404.1
  LOC652080 expression fc: 1.987
Refseq XM_941777.1
  LOC652349 expression fc: 2.835
Refseq XM_941875.1
  LOC652433 expression fc: 3.022
Refseq XM_942401.1
  LOC651390 expression fc: 1.937
Refseq XM_001126140.1
  LOC727846 expression fc: 2.175
Refseq XM_001126471.1
  LOC730278 fc: −1.092
Refseq XM_001127571.1, cultured human skeletal muscle
  PARP10 expression fc: −2.064
Refseq XM_001128017.1
  fc of LOC730996 (expression array): −0.2204
Refseq XM_001129035.1
  LOC342900 expression fc: 7.391
Refseq XM_001130065.2
  LOC729368 expression fc: 5.416
Refseq XM_001130308.2
  LOC729458 expression fc: 8.247
Refseq XM_001131061.1
  LOC729694 expression fc: 4.029
Refseq XM_001131072.1
  LOC729698 expression fc: 3.539
Refseq XM_001131081.1
  LOC729700 expression fc: 4.817
Refseq XM_001131091.1
  LOC729706 expression fc: 4.227
Refseq XM_001131132.1
  LOC729724 expression fc: 3.038
Refseq XM_001131140.1
  LOC729731 expression fc: 5.007
